How the values were obtained:
[1] = test system: chronic myelogenous leukemia; experiment: Hematological remission in patients with stable phase CML treated with 2-CdA (Example 1); format: in vivo, human
Experimental: (§1) Each course was repeated every 28 days until the maximum hematological remission response of the treatment was achieved. The median age of the patients was 60 years, with a range of 52 to 75 years. There were 3 males and 2 females. A median of 2 courses of treatment was administered, with a range of 1 to 4 courses.
The median follow-up was 3.2 months, with a range from 1.0 to 5.7 months.

[2] = test system: total circulating peripheral blood granulocytes; experiment: Effect of 2-CdA on total circulating peripheral blood granulocytes in a patient with CML (Example 2); format: in vivo, human
Experimental: as §1

granulocytes [3] = experiment: Effects of 2-CdA on granulocyte counts in two non-CML (multiple sclerosis) patients (Example 3); format: in vivo, human
Source text: Those results are illustrated and discussed hereinafter in Example 3.
Granulocyte counts were obtained from two patients who were receiving 2-CdA in the treatment of a non-leukemic disease, multiple sclerosis. These patients therefore had normal granulocytes.

[4] = test system: delayed-type hypersensitivity; experiment: Oral and IP effects on delayed-type hypersensitivity (DTH) to ovalbumin (Example 5, first study); format: in vivo, guinea pig
Experimental: (§2) Delayed-type hypersensitivity (DTH) is a cell-mediated immune response that typically takes longer than 12 hours to develop. In the guinea pig, a DTH reaction to an antigen can be established by first immunizing the animal with the antigen in an adjuvant such as Freund's complete adjuvant. Subsequent intradermal injection of the antigen causes no change for at least 10 hours, after which there is a gradual increase in erythema and swelling in response to antigen injection. This response peaks about at about 24 hours after challenge, then gradually subsides.
(§3) Histologically, the inflammatory response is characterized by intense inundation of the site with mononuclear cells, of which about half are lymphocytes and the other half monocytes. DTH is therefore an indicator of a monocyte-mediated immune reaction.
In one study, guinea pigs were sensitized to ovalbumin in adjuvant. […] The animals were then injected with ovalbumin intradermally to elicit the DTH response. The mean area of the swelling size was measured for each animal (nine or ten animals were treated for each protocol).

[5] = test system: delayed-type hypersensitivity; experiment: Effects of different dosages of 2-CdA on DTH to ovalbumin (Example 5, second study); format: in vivo, guinea pig; details: for inhibition of swelling compared to saline control: 24 and 48 hours post-challenge, p <0.01 by Student's t-test
Experimental: as §2, §3
Three days after treatment, the animals were challenged with ovalbumin intradermally. The areas of the skin lesions were measured at 6, 24, and 48 hours after challenge.

CEM, wild type = experiment: cells; details: Homo sapiens, 120 h, read-out: ID50
Source text: (§4) ^1 Concentration that produced 50 percent reduction in all numbers

[6] = test system: CEM, deoxyeytidine kinase deficient; experiment: cells; details: Homo sapiens, 120 h, read-out: ID50
Source text: as §4

[7] = test system: CEM, Increased 5'-nucleoside; experiment: cells; details: Homo sapiens, 120 h, read-out: ID50
Source text: as §4

[8] = test system: DHL9, Increased ribonucleotide reduction; experiment: cells; details: Homo sapiens, 120 h, read-out: ID50
Source text: as §4

[9] = test system: Peripheral blood lymphocytes; experiment: cells; details: Homo sapiens, Lymphocyte, 120 h, read-out: ID50
Source text: as §4

Monocytes = experiment: cells; details: Homo sapiens, Monocyte, 120 h, read-out: ID50
Source text: as §4

CFU-GM cells = details: 100 nM; cited from earlier work
CML in blast crisis = details: Phase I, cited from earlier work
neutrophils = details: chronic lymphocytic leukemia; serum levels less than 10 nM; in most cases; cited from earlier work
granulocytes [10] = details: hairy cell leukemia, cited from earlier work
[11] = test system: Primitive burst-forming unit-erythroid (pBFU-E) cells; details: read-out: IC50 (concentration required to inhibit 50 percent of growth); cited from earlier work
[12] = test system: Mature BFU-E (mBFU-E) cells; details: read-out: IC50 (concentration required to inhibit 50 percent of growth); cited from earlier work
[13] = test system: colony forming unit-erythroid (CFU-E) cells; details: read-out: IC50 (concentration required to inhibit 50 percent of growth); cited from earlier work
[14] = test system: Colony forming unit-granulocyte macrophage (CFU-GM) cells; details: read-out: IC50 (concentration required to inhibit 50 percent of growth); cited from earlier work

Nc1nc(Cl)nc2c1ncn2[C@H]1C[C@H](O)[C@@H](CO)O1 [2-CdA, 2-chloro-2'-deoxyadenosine]
toxicity attributable to 2-CdA ([1]; 0.1 mg/kg per day continuous i.v. infusion for 7 days, 1 to 4 courses): No toxicity attributable to 2-CdA was encountered | hematological remission upon follow-up, Patient 4 ([1]; 1 course, prior hydroxyurea and α-interferon, follow-up 1.5 months): complete hematological remission | hematological remission upon follow-up, Patient 5 ([1]; 2 courses, prior hydroxyurea, follow-up 1.0 months): complete hematological remission | hematological remission upon follow-up, Patient 2 ([1]; 2 courses, prior hydroxyurea, follow-up 3.0 months): complete hematological remission | hematological remission upon follow-up, Patient 3 ([1]; 3 courses, prior hydroxyurea and α-interferon, follow-up 3.2 months): complete hematological remission | hematological remission upon follow-up, Patient 1 ([1]; 4 courses, prior hydroxyurea, follow-up 5.7 months): complete hematological remission | complete hematological remissions (normalization of peripheral leukocyte counts, platelet counts, and resolution of splenomegaly) ([1]; 5 patients, 0.1 mg/kg per day continuous i.v. infusion for 7 days, repeated every 28 days, median 2 courses): All five patients obtained complete hematological remissions | median follow-up (all patients continuing in hematologic remission) ([1]; 5 patients, range 1.0 to 5.7 months): 3.2 months | Philadelphia chromosome at follow-up ([1]; all patients): persistence of the Philadelphia chromosome | hematologic remission at follow-up, all patients ([1]; median follow-up 3.2 months): All patients continue to be in hematologic remission | granulocyte count ([2]; second course, day 5): 27,724 /μl | decrease from the granulocyte count at day zero ([2]; second course, day 13): > 99% | granulocyte count ([2]; second course, day 13): 210 µL⁻¹ | granulocyte count ([2]; second course, day 17): 690 µL⁻¹ | granulocyte count ([2]; second course, day zero (start of therapy)): 34,831 /μl | granulocyte count ([2]; third course, day 5, unit not given): 5,676 /μl | decrease from the initial granulocyte level ([2]; third course, day 14): approximately 98% | granulocyte count ([2]; third course, day 14, unit not given): 270 µL⁻¹ | lower than the initial granulocyte count ([2]; third course, day 17): 95% | granulocyte count ([2]; third course, day 17, unit not given): 525 µL⁻¹ | granulocyte count ([2]; third course, day zero, unit not given): 11,060 /μl | granulocyte counts after several courses (granulocytes [3]; multiple sclerosis patients, about 0.1 mg/kg/day, seven day continuous infusion): substantially unchanged | effect on the granulocyte count (granulocytes [3]; two multiple sclerosis patients): did not affect the granulocyte count | inhibition of swelling compared to control animals ([4]; 1 mg/kg, intraperitoneal, p <0.01 by Student's t-test): significant inhibition of swelling | effect on DTH swelling, oral route ([4]; 1 mg/kg, oral, without enteric coating): ineffective | effectiveness when given orally ([4]; oral, without the protection of an enteric coating (2-CdA), preliminary in vivo studies): ineffective | inhibition of swelling compared to saline control ([5]; 0.1 mg/kg): effective at inhibiting swelling | inhibition of swelling compared to saline control ([5]; 1 mg/kg): effective at inhibiting swelling | areas of swelling, 0.1 vs 1.0 mg/kg ([5]; 0.1 and 1.0 mg/kg): substantially the same | areas of swelling compared to dexamethasone-treated animals ([5]; 0.1 and 1.0 mg/kg 2-CdA vs dexamethasone 5 mg/kg): slightly less than the value obtained with dexamethasone | IC50 (CEM, wild type): 21 nM | IC50 [6]: 716 µM | IC50 [7]: 60 nM | IC50 [8]: 4 µM | IC50 [9]: 15 nM | IC50 (Monocytes): 22 nM | reduction of CFU-GM growth (CFU-GM cells): 60% | detectable tumor (CML in blast crisis; another of two patients): loss of detectable tumor in another patient | blast count (CML in blast crisis; one of two patients): decrease in blast count in one patient | neutrophil count (neutrophils): increase in neutrophil count | neutropenia (granulocytes [10]): transient neutropenia | granulocyte counts (granulocytes [10]; transient): under 500 per microliter | IC50 [11]: 19 nM | IC50 [12]: 38 nM | IC50 [13]: 56 nM | IC50 [14]: 16 nM

— US5401724A, “Therapeutic treatment of chronic myelogenous leukemia by administration of 2-chloro-2'-deoxy adenosine” (priority 1994, dated 1995)
